This assay concerns the target Heat shock protein HSP90 (Homo sapiens, UniProt P07900+P08238). Nature of the assay: Binding affinity to HSP90 CTD (unknown origin) by circular dichroism spectroscopy. The assay is classed as protein assay. On the technique in general: CD spectra are sensitive to the conformation of chiral molecules.

By Kd is commonly meant the concentration at which binding is half-saturated. Read a low Kd as tighter binding.

Turning to `CC[C@H](C)[C@@H](ONC(=O)[C@H](ONC(=O)[C@@H](Cc1ccccc1)ONC(=O)[C@@H](Cc1ccccc1)ONC(=O)OCc1ccccc1)[C@@H](C)CC)C(=O)NO[C@H](CC(C)C)C(=O)NO[C@H](CC(C)C)C(N)=O`, the dissociation constant (Kd) was 27.4 µM.

(Values after ChEMBL document CHEMBL4304803, “C-terminal modulators of heat shock protein of 90 kDa (HSP90): State of development and modes of action” (Bioorg Med Chem, 2019).)
